Reference: the supplement of paper PMC10307832

How the values were obtained:
Test in all cases: relative viability (nuclei count vs DMSO), 5 days (fraction); higher = more cells survive
PC-3 [JPC-3] = system: PC-3 [JPC-3]
Procedure, shortened: (§1)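 Cells from lung cancer lines were seeded into 1536-well plates and, one day later, dosed by pin tool. Treatments were either a single drug or a fixed dose of an anchor drug with five library-drug doses (not always all listed) in √10 steps. After 5 days, nuclei were stained in a one-step fixation (final 0.05% Triton X-100, 1% formaldehyde, 1 ug/ml Hoechst) and counted on 4× images, and relative viability is the treated-to-vehicle nuclei ratio, as the median of duplicate plates.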

A-427 = system: A-427
Procedure, shortened: as §1

NCI-H1975 = system: NCI-H1975
Procedure, shortened: as §1

HCC-78 = system: HCC-78
Procedure, shortened: as §1

HOP-62 = system: HOP-62
Procedure, shortened: as §1

NCI-H1792 = system: NCI-H1792
Procedure, shortened: as §1

NCI-H647 = system: NCI-H647
Procedure, shortened: as §1

NCI-H1915 = system: NCI-H1915
Procedure, shortened: as §1

SK-LU-1 = system: SK-LU-1
Procedure, shortened: as §1

NCI-H2228 = system: NCI-H2228
Procedure, shortened: as §1

NCI-H358 = system: NCI-H358
Procedure, shortened: as §1

LXF-289 = system: LXF-289
Procedure, shortened: as §1

LC-2-ad = system: LC-2-ad
Procedure, shortened: as §1

HCC-15 = system: HCC-15
Procedure, shortened: as §1

NCI-H2126 = system: NCI-H2126
Procedure, shortened: as §1

NCI-H2347 = system: NCI-H2347
Procedure, shortened: as §1

NCI-H1734 = system: NCI-H1734
Procedure, shortened: as §1

NCI-H1755 = system: NCI-H1755
Procedure, shortened: as §1

SW 1573 = system: SW 1573
Procedure, shortened: as §1

LOU-NH91 = system: LOU-NH91
Procedure, shortened: as §1

NCI-H460 = system: NCI-H460
Procedure, shortened: as §1

RERF-LC-KJ = system: RERF-LC-KJ
Procedure, shortened: as §1

SMILES: COc1cc(N2CCC(C(N)=O)CC2)ccc1Nc1nc(N)c(Cl)c(Nc2ccccc2S(=O)(=O)C(C)C)n1 [HG-5-88-01] + C[C@@H](Oc1cc(-c2cnn(C3CCNCC3)c2)cnc1N)c1c(Cl)ccc(F)c1Cl [Crizotinib] (partner 1 µM)
- relative viability (PC-3 [JPC-3]; first compound 0.04 µM): 0.983
- relative viability (PC-3 [JPC-3]; first compound 0.1265 µM): 1.03
- relative viability (PC-3 [JPC-3]; first compound 0.4 µM): 1.07
- relative viability (PC-3 [JPC-3]; first compound 1.265 µM): 0.937
- relative viability (PC-3 [JPC-3]; first compound 4 µM): 0.64
- relative viability (A-427; first compound 0.04 µM): 0.93
- relative viability (A-427; first compound 0.1265 µM): 0.952
- relative viability (A-427; first compound 0.4 µM): 0.951
- relative viability (A-427; first compound 1.265 µM): 0.843
- relative viability (A-427; first compound 4 µM): 0.791
- relative viability (NCI-H1975; first compound 0.04 µM): 1.03
- relative viability (NCI-H1975; first compound 0.1265 µM): 1.03
- relative viability (NCI-H1975; first compound 0.4 µM): 0.821
- relative viability (NCI-H1975; first compound 1.265 µM): 0.794
- relative viability (NCI-H1975; first compound 4 µM): 0.334
- relative viability (HCC-78; first compound 0.04 µM): 0.37
- relative viability (HCC-78; first compound 0.1265 µM): 0.319
- relative viability (HCC-78; first compound 0.4 µM): 0.31
- relative viability (HCC-78; first compound 1.265 µM): 0.185
- relative viability (HCC-78; first compound 4 µM): 0.275
- relative viability (HOP-62; first compound 0.04 µM): 0.894
- relative viability (HOP-62; first compound 0.1265 µM): 1.12
- relative viability (HOP-62; first compound 0.4 µM): 0.83
- relative viability (HOP-62; first compound 1.265 µM): 0.925
- relative viability (HOP-62; first compound 4 µM): 0.96
- relative viability (NCI-H1792; first compound 0.04 µM): 1.11
- relative viability (NCI-H1792; first compound 0.1265 µM): 0.968
- relative viability (NCI-H1792; first compound 0.4 µM): 0.869
- relative viability (NCI-H1792; first compound 1.265 µM): 0.947
- relative viability (NCI-H1792; first compound 4 µM): 0.978
- relative viability (NCI-H647; first compound 0.04 µM): 1.16
- relative viability (NCI-H647; first compound 0.1265 µM): 0.992
- relative viability (NCI-H647; first compound 1.265 µM): 0.955
- relative viability (NCI-H647; first compound 4 µM): 0.393
- relative viability (NCI-H1915; first compound 0.04 µM): 0.926
- relative viability (NCI-H1915; first compound 0.1265 µM): 0.885
- relative viability (NCI-H1915; first compound 0.4 µM): 0.906
- relative viability (NCI-H1915; first compound 1.265 µM): 0.928
- relative viability (NCI-H1915; first compound 4 µM): 0.808
- relative viability (SK-LU-1; first compound 0.04 µM): 1.04
- relative viability (SK-LU-1; first compound 0.1265 µM): 0.793
- relative viability (SK-LU-1; first compound 0.4 µM): 0.867
- relative viability (SK-LU-1; first compound 1.265 µM): 0.845
- relative viability (SK-LU-1; first compound 4 µM): 0.595
- relative viability (NCI-H2228; first compound 0.04 µM): 0.677
- relative viability (NCI-H2228; first compound 0.1265 µM): 0.464
- relative viability (NCI-H2228; first compound 0.4 µM): 0.454
- relative viability (NCI-H2228; first compound 1.265 µM): 0.427
- relative viability (NCI-H2228; first compound 4 µM): 0.307
- relative viability (NCI-H358; first compound 0.04 µM): 0.526
- relative viability (NCI-H358; first compound 0.1265 µM): 0.461
- relative viability (NCI-H358; first compound 0.4 µM): 0.529
- relative viability (NCI-H358; first compound 1.265 µM): 0.318
- relative viability (NCI-H358; first compound 4 µM): 0.235
- relative viability (LXF-289; first compound 0.04 µM): 0.804
- relative viability (LXF-289; first compound 0.1265 µM): 0.797
- relative viability (LXF-289; first compound 0.4 µM): 0.851
- relative viability (LXF-289; first compound 1.265 µM): 0.831
- relative viability (LXF-289; first compound 4 µM): 0.827
- relative viability (LC-2-ad; first compound 0.04 µM): 0.436
- relative viability (LC-2-ad; first compound 0.1265 µM): 0.496
- relative viability (LC-2-ad; first compound 0.4 µM): 0.5
- relative viability (LC-2-ad; first compound 1.265 µM): 0.4
- relative viability (LC-2-ad; first compound 4 µM): 0.368
- relative viability (HCC-15; first compound 0.04 µM): 0.898
- relative viability (HCC-15; first compound 0.1265 µM): 0.775
- relative viability (HCC-15; first compound 0.4 µM): 0.779
- relative viability (HCC-15; first compound 1.265 µM): 0.801
- relative viability (HCC-15; first compound 4 µM): 0.77
- relative viability (NCI-H2126; first compound 0.04 µM): 1.02
- relative viability (NCI-H2126; first compound 0.1265 µM): 1.09
- relative viability (NCI-H2126; first compound 0.4 µM): 0.976
- relative viability (NCI-H2126; first compound 1.265 µM): 0.968
- relative viability (NCI-H2126; first compound 4 µM): 1.01
- relative viability (NCI-H2347; first compound 0.04 µM): 0.779
- relative viability (NCI-H2347; first compound 0.1265 µM): 0.81
- relative viability (NCI-H2347; first compound 0.4 µM): 0.834
- relative viability (NCI-H2347; first compound 1.265 µM): 0.634
- relative viability (NCI-H2347; first compound 4 µM): 0.744
- relative viability (NCI-H1734; first compound 0.04 µM): 0.71
- relative viability (NCI-H1734; first compound 0.1265 µM): 0.709
- relative viability (NCI-H1734; first compound 0.4 µM): 0.681
- relative viability (NCI-H1734; first compound 1.265 µM): 0.497
- relative viability (NCI-H1734; first compound 4 µM): 0.64
- relative viability (NCI-H1755; first compound 0.1265 µM): 0.86
- relative viability (NCI-H1755; first compound 0.4 µM): 0.854
- relative viability (NCI-H1755; first compound 1.265 µM): 0.768
- relative viability (NCI-H1755; first compound 4 µM): 0.933
- relative viability (SW 1573; first compound 0.04 µM): 0.806
- relative viability (SW 1573; first compound 0.1265 µM): 0.848
- relative viability (SW 1573; first compound 0.4 µM): 0.907
- relative viability (SW 1573; first compound 1.265 µM): 0.568
- relative viability (SW 1573; first compound 4 µM): 0.475
- relative viability (LOU-NH91; first compound 0.04 µM): 0.745
- relative viability (LOU-NH91; first compound 0.1265 µM): 0.737
- relative viability (LOU-NH91; first compound 0.4 µM): 0.671
- relative viability (LOU-NH91; first compound 1.265 µM): 0.494
- relative viability (LOU-NH91; first compound 4 µM): 0.566
- relative viability (NCI-H460; first compound 0.04 µM): 0.83
- relative viability (NCI-H460; first compound 0.1265 µM): 1.06
- relative viability (NCI-H460; first compound 0.4 µM): 0.851
- relative viability (NCI-H460; first compound 1.265 µM): 0.843
- relative viability (NCI-H460; first compound 4 µM): 0.0524
- relative viability (RERF-LC-KJ; first compound 0.04 µM): 0.816
- relative viability (RERF-LC-KJ; first compound 0.1265 µM): 0.816
- relative viability (RERF-LC-KJ; first compound 0.4 µM): 0.81
- relative viability (RERF-LC-KJ; first compound 1.265 µM): 0.782
- relative viability (RERF-LC-KJ; first compound 4 µM): 0.535
